# Measured values: US12201632B2, “Levoketoconazole for treatment of congenital adrenal hyperplasia and primary aldosteronism” (Strongbridge Dublin Limited, priority 2018, dated 2025)
# Where two headings read alike, the source gives them in different places.
# Legend:
# [1] = system: AtT20 cells; assay: ACTH secretion corrected for cell amount in AtT20 cells; format: cell-based, mouse
# Procedure: Human adrenocortical carcinoma HAC15 and mouse corticotroph AtT20 cells were used, purchased as a kind gift by Dr. W. Rainey, and obtained from Dr. J. Tooze (European Organization for Molecular Biology), respectively. Both cell lines were cultured in 75 cm^2 flasks at 37° C. in a humidified incubator (Greiner Bio-One, Alphen a/d Rijn, the Netherlands) at 5% CO2. Dulbecco's Modified Eagle Medium F12 containing 5% fetal calf serum was used for HAC15, whereas AtT20 cells were cultured in Dulbecco's minimal essential medium (DMEM) supplemented with 10% fetal calf serum. Both mediums were supplemented with L-glutamine (2 mmol/L) and penicillin (10^5 U/L). Short tandem repeat (str) profiling using a Powerplex Kit (Promega, Leiden, the Netherlands) of HAC15 and AtT20 gave results consistent with the ATCC database, confirming the identity of both cell lines. Medium and supplements were obtained from Invitrogen, Breda, the Netherlands. Once a week, cells were harvested with trypsin (0.05%)-EDTA (0.53 mM) and resuspended in culture medium. Levoketoconazole (COR-003) and racemic ketoconazole (both from Cortendo AB) were dissolved in absolute ethanol (EtOH), according to manufacturer's instructions, and stored at −20° C. at a stock concentration of […]. At the start of each experiment, both drugs were freshly prepared and diluted in EtOH in the correct concentrations. Synacten (synthetic ACTH, Novartis Pharma A.G.) stock concentration was stored at 4° C. and dissolved in culture medium at the day of use. The final concentrations of ACTH were chosen based on a dose-response curve in HAC15 cells and previously reported studies in the literature. For HAC15, 200,000 and 100,000 cells were plated in 0.5 ml medium in 24 well plates for experiments of 1 and 3 days, respectively. […]
# At the end of the AtT20 and primary pituitary adenoma culture experiments, medium was collected and supplemented with 1% of the protease inhibitor Trasylol to prevent degradation of ACTH. ACTH was measured using a commercially available, nonisotopic automatic chemiluminescence system (DPC Immulite).
# [2] = system: HAC15 cells; assay: Steroid profile by LC/MS-MS in HAC15 cells; format: cell-based, Human; details: 0.5 μM
# Procedure: Human adrenocortical carcinoma HAC15 and mouse corticotroph AtT20 cells were used, purchased as a kind gift by Dr. W. Rainey, and obtained from Dr. J. Tooze (European Organization for Molecular Biology), respectively. Both cell lines were cultured in 75 cm^2 flasks at 37° C. in a humidified incubator (Greiner Bio-One, Alphen a/d Rijn, the Netherlands) at 5% CO2. Dulbecco's Modified Eagle Medium F12 containing 5% fetal calf serum was used for HAC15, whereas AtT20 cells were cultured in Dulbecco's minimal essential medium (DMEM) supplemented with 10% fetal calf serum. Both mediums were supplemented with L-glutamine (2 mmol/L) and penicillin (10^5 U/L). Short tandem repeat (str) profiling using a Powerplex Kit (Promega, Leiden, the Netherlands) of HAC15 and AtT20 gave results consistent with the ATCC database, confirming the identity of both cell lines. Medium and supplements were obtained from Invitrogen, Breda, the Netherlands. Once a week, cells were harvested with trypsin (0.05%)-EDTA (0.53 mM) and resuspended in culture medium. Levoketoconazole (COR-003) and racemic ketoconazole (both from Cortendo AB) were dissolved in absolute ethanol (EtOH), according to manufacturer's instructions, and stored at −20° C. at a stock concentration of […]. At the start of each experiment, both drugs were freshly prepared and diluted in EtOH in the correct concentrations. Synacten (synthetic ACTH, Novartis Pharma A.G.) stock concentration was stored at 4° C. and dissolved in culture medium at the day of use. The final concentrations of ACTH were chosen based on a dose-response curve in HAC15 cells and previously reported studies in the literature. For HAC15, 200,000 and 100,000 cells were plated in 0.5 ml medium in 24 well plates for experiments of 1 and 3 days, respectively. For AtT20, cell amounts were 100,000 and 30,000. One day after seeding the HAC15 cells, the medium was refreshed and cells were treated 1 or 3 days in quadruplicate with levoketoconazole or racemic ketoconazole (0.05-5 μM), with or without 10 nM ACTH. To study effects of both compounds on pituitary AtT20 cells, concentrations of 0.1 to 10 μM of both drugs were used. Controls were vehicle treated. […] Media were collected after 1 or 3 days of incubation and stored at −20° C. until analysis. All cell culture experiments were carried out at least twice.
# (§1) Cortisol concentrations were measured in the supernatant using a chemiluminescence immunoassay system (Immulite 2000XPi; Siemens DPC Inc., Los Angeles, Calif., USA). In addition, we carried out multi-steroid analysis by liquid chromatography/mass spectrometry (LC/MS-MS) to accurately quantify androstenedione, corticosterone, cortisol, 11-deoxycortisol, DHEA, DHEAS, progesterone, 17-hydroxyprogesterone, and testosterone. Concentrations that were tested on the LC/MS-MS were closest to 50% inhibition or maximal inhibition of cortisol as determined by the immunoassay. Steroids were quantified with respect to a calibration series, with internal standards. Steroids were quantified on a Xevo TQS LC-MS/MS (Waters Chromatography).
# (§2) Statistical analysis was performed using Graphpad Prism 6.0 (Graphpad Software, San Diego, CA). Non-linear regression curve fitting program was used to calculate the half maximal inhibitory concentrations (IC50) on cortisol production. Effects of both compounds on the steroid profile were measured as absolute change compared to control and compared using the Student's t-test. When assessing differences between effects of both compounds, the percentage change was evaluated and compared in order to correct for differences in the vehicle treated control cells. Values of P<0.05 were considered statistically significant and data are presented as mean SEM.
# [3] = system: ACTH independent hyperplasia cultures; assay: Cortisol production in primary ACTH independent hyperplasia cultures; format: cell-based, human; details: ACTH independent hyperplasia no. 1, basal condition, 3 days
# Procedure: To obtain primary cultures, adrenal specimens (adrenocortical adenomas, adrenal hyperplasias and adrenocortical carcinomas) were collected after adrenalectomy at the department of Surgery, Erasmus University Medical Center, Rotterdam, the Netherlands, between April 2016 and May 2018. The study was conducted under guidelines that have been approved by the Medical Ethics Committee of the Erasmus Medical Center and informed consent was obtained from all patients. Immediately after surgery, specimens were minced into small pieces of 2-3 mm^3, washed in culture medium and centrifuged for 5 minutes at 600 g. The tissue was stored overnight in culture medium at 4° C., where after the tissue was centrifuged again and the supernatant was removed. Fragments were dissociated using 10-25 ml collagenase type 1 (2 mg/ml: Sigma-Aldrich), followed by incubation at 37° C. for up to two hours. Ficoll (GE healthcare) density gradient separation was used once or twice as required in order to separate contaminating red blood cells from the tumor cells. Cell viability and cell amount were counted by trypan blue exclusion. Dissociated cells were plated at a density of 10^5 cells per well. […]
# Cortisol concentrations were measured in the supernatant using a chemiluminescence immunoassay system (Immulite 2000XPi; Siemens DPC Inc., Los Angeles, Calif., USA). In addition, we carried out multi-steroid analysis by liquid chromatography/mass spectrometry (LC/MS-MS) to accurately quantify androstenedione, corticosterone, cortisol, 11-deoxycortisol, DHEA, DHEAS, progesterone, 17-hydroxyprogesterone, and testosterone. […] Steroids were quantified with respect to a calibration series, with internal standards. Steroids were quantified on a Xevo TQS LC-MS/MS (Waters Chromatography).
# Statistical analysis was performed using Graphpad Prism 6.0 (Graphpad Software, San Diego, CA). […] Effects of both compounds on the steroid profile were measured as absolute change compared to control and compared using the Student's t-test. […]
# [4] = system: cortisol-producing adrenal adenoma cultures; assay: Cortisol production in primary cortisol-producing adrenal adenoma cultures; format: cell-based, human
# Procedure: To obtain primary cultures, adrenal specimens (adrenocortical adenomas, adrenal hyperplasias and adrenocortical carcinomas) were collected after adrenalectomy at the department of Surgery, Erasmus University Medical Center, Rotterdam, the Netherlands, between April 2016 and May 2018. The study was conducted under guidelines that have been approved by the Medical Ethics Committee of the Erasmus Medical Center and informed consent was obtained from all patients. Immediately after surgery, specimens were minced into small pieces of 2-3 mm^3, washed in culture medium and centrifuged for 5 minutes at 600 g. The tissue was stored overnight in culture medium at 4° C., where after the tissue was centrifuged again and the supernatant was removed. Fragments were dissociated using 10-25 ml collagenase type 1 (2 mg/ml: Sigma-Aldrich), followed by incubation at 37° C. for up to two hours. Ficoll (GE healthcare) density gradient separation was used once or twice as required in order to separate contaminating red blood cells from the tumor cells. Cell viability and cell amount were counted by trypan blue exclusion. Dissociated cells were plated at a density of 10^5 cells per well. ACTH-secreting corticotroph pituitary adenoma tissue from patients with Cushing's disease (n=2) was available after transsphenoidal surgery. Single-cell suspensions of the pituitary adenoma tissues were prepared as previously described in detail.
# Owing to a limited number of cells obtained from the specimens, not all experiments were carried out in every primary culture.
# as §1, §2
# [5] = HAC15, ACTH, 3 days, listed as LK
smiles,measurement,setting,value
"CC(=O)N1CCN(c2ccc(OC[C@@H]3CO[C@@](Cn4ccnc4)(c4ccc(Cl)cc4Cl)O3)cc2)CC1 (relative stereo) [levoketoconazole, 2S,4R cis-1-acetyl-4-[4-[[2-(2,4-dichlorophenyl)-2-(1H-imidazol-1-ylmethyl)-1,3-dioxolan-4-yl]methoxyl]phenyl]piperazine]",Maximal inhibition of ACTH secretion,"[1]; AtT20, 7 days of treatment with 10 μM, corrected for cell amount",38%
same,ACTH secretion corrected for cell amount,"[1]; AtT20, after 3 days of treatment",showed inhibition of ACTH secretion
same,total sum of decrease of steroids,"[2]; HAC15, ACTH","−2,811 nmol/L"
same,11-DOC absolute change vs ACTH stimulation with vehicle,"[2]; HAC15, ACTH, 3 days",-1524 nmol/L
same,11-DOC percentage change vs ACTH stimulation with vehicle,"[2]; HAC15, ACTH, 3 days",−47%
same,17-OHP absolute change vs ACTH stimulation with vehicle,"[2]; HAC15, ACTH, 3 days",-24.73 nmol/L
same,17-OHP percentage change vs ACTH stimulation with vehicle,"[2]; HAC15, ACTH, 3 days",(−47%)
same,Androstenedione absolute change vs ACTH stimulation with vehicle,"[2]; HAC15, ACTH, 3 days",-943.7 nmol/L
same,Androstenedione percentage change vs ACTH stimulation with vehicle,"[2]; HAC15, ACTH, 3 days",(−52%)
same,Corticosterone absolute change vs ACTH stimulation with vehicle,"[2]; HAC15, ACTH, 3 days",-1.063 nmol/L
same,Corticosterone percentage change vs ACTH stimulation with vehicle,"[2]; HAC15, ACTH, 3 days",(−36%)
same,Cortisol absolute change vs ACTH stimulation with vehicle,"[2]; HAC15, ACTH, 3 days",-13.81 nmol/L
same,Cortisol percentage change vs ACTH stimulation with vehicle,"[2]; HAC15, ACTH, 3 days",−31%
same,DHEA absolute change vs ACTH stimulation with vehicle,"[2]; HAC15, ACTH, 3 days",-13.81 nmol/L
same,DHEA percentage change vs ACTH stimulation with vehicle,"[2]; HAC15, ACTH, 3 days",(−31%)
same,DHEAS absolute change vs ACTH stimulation with vehicle,"[2]; HAC15, ACTH, 3 days",-250.1 nmol/L
same,DHEAS percentage change vs ACTH stimulation with vehicle,"[2]; HAC15, ACTH, 3 days",(−43%)
same,Prog absolute change vs ACTH stimulation with vehicle,"[2]; HAC15, ACTH, 3 days",-2.163 nmol/L
same,Prog percentage change vs ACTH stimulation with vehicle,"[2]; HAC15, ACTH, 3 days",(−64%)
same,Testosterone absolute change vs ACTH stimulation with vehicle,"[2]; HAC15, ACTH, 3 days",-30.52 nmol/L
same,Testosterone percentage change vs ACTH stimulation with vehicle,"[2]; HAC15, ACTH, 3 days",(−71%)
same,11-DOC absolute change vs ACTH stimulation with vehicle,[2]; [5],-1524 nmol/L
same,11-DOC percentage change vs ACTH stimulation with vehicle,[2]; [5],(−47%)
same,Cortisol absolute change vs ACTH stimulation with vehicle,[2]; [5],-21.80 nmol/L
same,Cortisol percentage change vs ACTH stimulation with vehicle,[2]; [5],(−65%)
same,11-DOC absolute change vs control,"[2]; HAC15, Basal, 3 days",-1129 nmol/L
same,11-DOC percentage change vs control,"[2]; HAC15, Basal, 3 days",(−48%)
same,17-OHP absolute change vs control,"[2]; HAC15, Basal, 3 days",-26.89 nmol/L
same,17-OHP percentage change vs control,"[2]; HAC15, Basal, 3 days",(−57%)
same,Androstenedione absolute change vs control,"[2]; HAC15, Basal, 3 days",-1105 nmol/L
same,Androstenedione percentage change vs control,"[2]; HAC15, Basal, 3 days",(−56%)
same,Corticosterone absolute change vs control,"[2]; HAC15, Basal, 3 days",-0.2938 nmol/L
same,Corticosterone percentage change vs control,"[2]; HAC15, Basal, 3 days",(−39%)
same,Cortisol absolute change vs control,"[2]; HAC15, Basal, 3 days",-16.36 nmol/L
same,Cortisol percentage change vs control,"[2]; HAC15, Basal, 3 days",(−69%)
same,DHEA absolute change vs control,"[2]; HAC15, Basal, 3 days",-31.04 nmol/L
same,DHEA percentage change vs control,"[2]; HAC15, Basal, 3 days",(−44%)
same,DHEAS absolute change vs control,"[2]; HAC15, Basal, 3 days",-658.6 nmol/L
same,DHEAS percentage change vs control,"[2]; HAC15, Basal, 3 days",(−56%)
same,Prog absolute change vs control,"[2]; HAC15, Basal, 3 days",-0.9125 nmol/L
same,Prog percentage change vs control,"[2]; HAC15, Basal, 3 days",(−55%)
same,Testosterone absolute change vs control,"[2]; HAC15, Basal, 3 days",-39.19 nmol/L
same,Testosterone percentage change vs control,"[2]; HAC15, Basal, 3 days",(−64%)
same,total sum of decrease of steroids,"[2]; HAC15, basal","−3,007 nmol/L"
same,IC50 inhibition of cortisol production,[3],Ambiguous
same,IC50,"[4]; CPA no. 1, basal condition, 3 days, read-out: IC50 inhibition of cortisol production",0.116 µM
same,IC50,"[4]; CPA no. 2, basal condition, 3 days, read-out: IC50 inhibition of cortisol production",0.125 µM
same,IC50,"[4]; CPA no. 3, basal condition, 3 days, read-out: IC50 inhibition of cortisol production",0.14 µM
same,IC50,"[4]; CPA no. 4, basal condition, 3 days, read-out: IC50 inhibition of cortisol production",0.0631 µM
same,IC50,"[4]; basal condition, ACA (n=4), read-out: mean IC50 cortisol production",0.11 µM
